Type in all cases: cell-based
The subject of data set [1] is human cortical neurons. Put plainly: Aβ neurotoxicity / survival of human cortical neurons (alamarBlue), compound added at time of Aβ1-40. Here is the method:
(§1) Cultures of human cortical or hippocampal neurons were prepared using a modification of the procedure described in P. Seubert et al. (1992), Nature 359:325-327. Cortical or hippocampal tissue was dissociated by incubation in a trypsin/EDTA solution (0.05% trypsin +0.53 mM EDTA in HBSS; Gibco) for 20 minutes at 37° C. The trypsin was then inactivated by resuspending the cells in serum-containing medium (MEM/FBS): Modified Eagle's Medium (MEM) containing 1% glucose, 1 mM sodium pyruvate, 1 mM glutamine, and supplemented with 10% fetal bovine serum (Gibco). Cells were then pelleted by centrifugation and resuspended in a chemically-defined medium (MEM/B27): MEM containing B27 supplement (Gibco) in place of FBS. Polyethyleneimine (PEI)-coated 6.4-mm (96-well) dishes were rinsed once with MEM/FBS, and then seeded at 0.75-1.25×10^5 cells per well in 0.1 ml MEM/B27. Cultures were maintained in a H2 O-saturated incubator with an atmosphere of 95% air/5% CO2 at 37° C. The culture medium was exchanged twice weekly.
(§2) Amyloid-β (Aβ) stock solutions were prepared as 1 mM stocks in sterile ddH2 O immediately prior to addition to cultures. Rat cortical neurons were exposed to Aβ by removing the culture medium and replacing it with DMEM/N2 or DMEM/B27 containing Aβ1-40. Human cortical neurons were exposed to Aβ by removing the culture medium and replacing it with MEM, MEM/N2, or MEM/B27 containing Aβ1-40. Cultures were maintained for 2-4 days before neuronal survival was quantified using alamarBlue™.
(§3) The alamarBlue™ assay incorporated a proprietary fluorometric/colorimetric metabolic indicator (Alamar Biosciences, Inc.). Viable cells convert alamarBlue™ from an oxidized (non-fluorescent, blue) form to a reduced (fluorescent, red) form. Assays were performed by replacing the culture media with a 10% alamarBlue™ solution in DMEM (rat cortical cultures) or MEM (human cortical cultures). Reduction of alamarBlue™ was determined spectrofluorometrically using a Millipore Cytofluor 2350 Scanner (excitation, […]; emission, 590 nm) and CytoCalc™ software (Millipore Corporation).
The effect of the two benzenesulfonamide inhibitors of PLA2 in Example 2 were examined to determine the dose-dependence of their effect on neuronal survival in human cortical neuron cultures exposed to 0 μM, 25μM, or 50 μM of Aβ1-40 and varying doses of the benzenesulfonamide.
(§4) Human cortical neurons were treated with 50 μM Aβ1-40 and various inhibitors of PLA2 or PLC. Compounds were added at the time of Aβ1-40 treatment at concentrations 390 nM to 100 μM. Compounds were also added to neuronal cultures in the absence of Aβ1-40. Neuronal survival was determined after 3 days of treatment by alamarBlue®. IC50 is the dose of compound that inhibited Aβ-mediated neurotoxicity by 50%. […] Data represents the mean ± SD (n=3). ND, not detected at the concentration range used.

Data set [2] relates to human cortical neurons. The data set is described as follows: Compound toxicity to human cortical neurons in absence of Aβ1-40 (alamarBlue, 3 days). Particulars: human, 4320 min. Here is the method:
as §1, §3, §4
In general terms: Resazurin is reduced to fluorescent resorufin, in cell work by metabolically active cells.

Data set [3] relates to human cortical neurons. Put plainly: Aβ neurotoxicity in human cortical neurons (alamarBlue), 2 h pretreatment with inhibitor. As to conditions: Homo sapiens, Cortical neurone, 50 μM Aβ1-40, compound 390 nM to 100 μM, 2 h pretreatment and re-added with Aβ, 3 days, n=3. As to the method: as §1, §2, §3
The effect of pretreating human cortical neuron cultures with the benzenesulfonamide PLA2 inhibitors and arachidonyl trifluoromethyl ketone prior to exposure to a neurotoxic concentration of Aβ1-40 was determined.
Human cortical neurons were treated with 50 μM Aβ1-40 and various inhibitors of PLA2. Compounds were added 2 hours prior to Aβ1-40 treatment at concentrations of 390 nM to 100 μM, and were then re-added at the time of Aβ1-40 treatment. Compounds were also added in an identical manner to neuronal cultures in the absence of Aβ1-40. Neuronal survival was determined after 3 days of treatment by alamarBlue®. IC50 is the dose of compound that inhibited Aβ-mediated neurotoxicity by 50%. […] Data represents the mean ± SD (n=3). ND, not detected at the concentration range used.

Consider one compound from patent US5707821A, “Identification of phospholipase A2 inhibitors in Aβ peptide-mediated neurodegenerative disease” (priority 1995, dated 1998).

Regarding `CN(C(=O)/C=C/c1ccc(S(C)(=O)=O)cc1)c1ccc(S(=O)(=O)NC2CCCCCC2)cc1` [AN20606, N-cycloheptyl-4-[N-methyl-N-[(E)-3-(4-methylsulfonylphenyl)-2-propenoyl]amino]benzenesulfonamide], the “neuronal survival in the presence of pathogenic Aβ peptide (in words)” value in the data set with human cortical neurons [1] (0, 25 or 50 μM Aβ1-40, varying doses, FIG. 3, FIG. 4) is “dose-dependent increase in neuronal survival”. The “Max Inh” value with human cortical neurons [1] (50 μM Aβ1-40, compound 390 nM to 100 μM added at time of Aβ, 3 days, n=3) amounted to 80%. In addition, the concentration for half-maximal inhibition (IC50) with human cortical neurons [1] (Homo sapiens, Cortical neurone, 72 h, 50 μM Aβ1-40, compound 390 nM to 100 μM added at time of Aβ, 3 days, n=3, ND = not detected at the concentration range used, read-out: IC50 (dose that inhibited Aβ-mediated neurotoxicity by 50%)) was determined as 5 µM; in the data set on human cortical neurons [3] (ND = not detected at the concentration range used, read-out: IC50 (dose that inhibited Aβ-mediated neurotoxicity by 50%)), 3 µM. In the data set on human cortical neurons [2], the “TD10 (concentration giving 10% loss of neuronal survival)” value worked out at 98 µM. The Emax with human cortical neurons [3] (72 h, read-out: Max Inh) worked out at 89%.

One may read the IC50 as the midpoint of a concentration-inhibition curve.
